# Laboratory results taken from ChEMBL document CHEMBL1153286, “Synthesis and biological evaluation of sulfonylurea and thiourea derivatives substituted with benzenesulfonamide groups as potential hypoglycemic agents” (Bioorg Med Chem Lett, 2009).
# Assays:
# [1] = Effect on insulin release in rat pancreatic cells at 1 umol/L after 6 hrs by radioimmunoassay; format: functional
# [2] = Effect on insulin release in rat pancreatic cells at 10 umol/L after 6 hrs by radioimmunoassay; format: functional
# [3] = Effect on insulin release in rat pancreatic cells at 100 umol/L after 6 hrs by radioimmunoassay; format: functional
# [4] = Increase in insulin release in rat pancreatic cells at 100 umol/L after 6 hrs by radioimmunoassay relative to basal level; format: functional
# [5] = system: Adipocyte; assay: Effect on 2-deoxy-D-[1-3H]glucose transport in Sprague-Dawley rat adipocytes at 1 uM in absence of insulin by liquid scintillation counting; format: functional
# [6] = system: Adipocyte; assay: Effect on 2-deoxy-D-[1-3H]glucose transport in Sprague-Dawley rat adipocytes at 1 uM in presence of insulin by liquid scintillation counting; format: functional
# [7] = system: Adipocyte; assay: Effect on 2-deoxy-D-[1-3H]glucose transport in Sprague-Dawley rat adipocytes at 10 uM in absence of insulin by liquid scintillation counting; format: functional
# [8] = system: Adipocyte; assay: Effect on 2-deoxy-D-[1-3H]glucose transport in Sprague-Dawley rat adipocytes at 10 uM in presence of insulin by liquid scintillation counting; format: functional
# [9] = system: Adipocyte; assay: Effect on 2-deoxy-D-[1-3H]glucose transport in Sprague-Dawley rat adipocytes at 100 uM in absence of insulin by liquid scintillation counting; format: functional
# [10] = system: Adipocyte; assay: Effect on 2-deoxy-D-[1-3H]glucose transport in Sprague-Dawley rat adipocytes at 100 uM in presence of insulin by liquid scintillation counting; format: functional
# [11] = system: Adipocyte; assay: Increase in glucose absorption in Sprague-Dawley rat adipocytes at 100 uM by liquid scintillation counting relative to basal level; format: functional
# [12] = Antiplatelet activity in human platelets assessed as inhibition of arachidonic acid-induced platelet aggregation; format: functional, cell-based
# [13] = Antiplatelet activity in human platelets assessed as inhibition of ADP-induced platelet aggregation; format: functional, cell-based
# [14] = system: Mus musculus; assay: Protection against collagen-epinephrine-induced mortality in Chinese Kunming cerebral thrombosis mouse model assessed as survival rate at 60 mg/kg, po administered once daily for 7 days measured on day 7 within 15 mins of collagen-epinephrine challenge; format: functional
SMILES,Activity [1],Activity [2],Activity [3],fold change (FC) [4],Activity [5],Activity [6],Activity [7],Activity [8],Activity [9],Activity [10],fold change (FC) [11],IC50 [12],IC50 [13],survival at 60 mg/kg [14]
CC1CCC(NC(=O)NS(=O)(=O)c2ccc(CCNS(=O)(=O)c3ccc(Cl)cc3)cc2)CC1 (stereo not given),38.15 uIU/ml,41.29 uIU/ml,72.23 uIU/ml,3.05,5869.85 disintegrations/minute,5972.68 disintegrations/minute,6411.7 disintegrations/minute,6358.77 disintegrations/minute,6960.26 disintegrations/minute,7013.28 disintegrations/minute,1.57,,,
CC(=O)Oc1ccccc1C(=O)O [ASPIRIN],,,,,,,,,,,,0.35 µM,9.34 µM,63.6%
CC(=O)Nc1ccc(S(=O)(=O)NCCc2ccc(S(=O)(=O)NC(=O)NC3CCC(C)CC3)cc2)cc1C (stereo not given),23.57 uIU/ml,27.67 uIU/ml,37.32 uIU/ml,,4302.19 disintegrations/minute,6123.02 disintegrations/minute,4573.8 disintegrations/minute,6516.9 disintegrations/minute,5207.81 disintegrations/minute,7244.87 disintegrations/minute,,,,
CC1CCC(NC(=O)NS(=O)(=O)c2ccc(CCNS(=O)(=O)c3ccccc3)cc2)CC1 (stereo not given),32.15 uIU/ml,41.29 uIU/ml,52.23 uIU/ml,,,,,,,,,,,
CC(=O)Nc1ccc(S(=O)(=O)NCCc2ccc(S(=O)(=O)NC(=O)NC3CCC(C)CC3)cc2)cc1 (stereo not given),30.18 uIU/ml,36.67 uIU/ml,28.52 uIU/ml,,4215.36 disintegrations/minute,5087.78 disintegrations/minute,5616.15 disintegrations/minute,6200.35 disintegrations/minute,6736.82 disintegrations/minute,6812.33 disintegrations/minute,,,,
COc1cc(S(=O)(=O)NCCc2ccc(S(=O)(=O)NC(=O)NC3CCC(C)CC3)cc2)ccc1NC(C)=O (stereo not given),24.57 uIU/ml,24.47 uIU/ml,24.83 uIU/ml,,5294.78 disintegrations/minute,5587.26 disintegrations/minute,6547.93 disintegrations/minute,6341.17 disintegrations/minute,7037.78 disintegrations/minute,7447.72 disintegrations/minute,1.58,,,
COc1ccc(NC(=S)NS(=O)(=O)c2ccc(CCNS(=O)(=O)c3ccccc3)cc2)cc1,22.86 uIU/ml,24.98 uIU/ml,23.42 uIU/ml,,4179.5 disintegrations/minute,5708.43 disintegrations/minute,4118.78 disintegrations/minute,7555.71 disintegrations/minute,4366.76 disintegrations/minute,6987.19 disintegrations/minute,,,,
O=S(=O)(NCCc1ccc(S(=O)(=O)NC(=S)Nc2ccc(Cl)cc2)cc1)c1ccccc1,28.94 uIU/ml,32.1 uIU/ml,26.06 uIU/ml,,,,,,,,,,,
Cc1ccc(NC(=S)NS(=O)(=O)c2ccc(CCNS(=O)(=O)c3ccc(C)cc3)cc2)cc1,21.99 uIU/ml,24.24 uIU/ml,20.87 uIU/ml,,4428.46 disintegrations/minute,5627.67 disintegrations/minute,4401.01 disintegrations/minute,5115.32 disintegrations/minute,4513.06 disintegrations/minute,5624.51 disintegrations/minute,,,,
O=C(NC1CCCCC1)NS(=O)(=O)c1ccc(CCNS(=O)(=O)c2ccc(Cl)cc2)cc1,33.95 uIU/ml,41.18 uIU/ml,55.03 uIU/ml,,4576.35 disintegrations/minute,5217.31 disintegrations/minute,5878.83 disintegrations/minute,5933.89 disintegrations/minute,6632.7 disintegrations/minute,6521.12 disintegrations/minute,,,,
